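In this assay, cells in 96-well plates receive the compound at five concentrations for 48 hours. Endpoints are linearly interpolated between the surrounding concentrations. GI50 is the concentration that inhibits growth by half.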 The source made the active and inactive calls. No stated cut-off is given here; in the data, active = GI50 up to about 1.1 µM and inactive = higher.
What was measured:
Test in all cases: growth of human tumour cells (NCI), 48 h
[1] = tested on: CCRF-CEM
[2] = tested on: COLO 205
[3] = tested on: K562
[4] = tested on: KM12
[5] = tested on: M14
[6] = tested on: MOLT-4
[7] = tested on: OVCAR-3
[8] = tested on: OVCAR-4
[9] = tested on: OVCAR-5
[10] = tested on: OVCAR-8
[11] = tested on: RXF 393
[12] = tested on: SF-268
[13] = tested on: SF-539
[14] = tested on: SK-MEL-2
[15] = tested on: SK-MEL-5
[16] = tested on: SN12C
[17] = tested on: U-251
[18] = tested on: UACC-62
[19] = tested on: A549
[20] = tested on: HCT-116

Compound | GI50 [1] | GI50 [2] | GI50 [3] | GI50 [4] | GI50 [5] | GI50 [6] | GI50 [7] | GI50 [8] | GI50 [9] | GI50 [10] | GI50 [11] | GI50 [12] | GI50 [13] | GI50 [14] | GI50 [15] | GI50 [16] | GI50 [17] | GI50 [18] | GI50 [19] | GI50 [20]
O=C(c1ccco1)C1CC(c2c(O)ccc3ccccc23)=NN1 (stereo not drawn) | 9.71 µM (inactive) | 6.37 µM (inactive) | 12.4 µM (inactive) | 11.4 µM (inactive) | 11.9 µM (inactive) | 12.1 µM (inactive) | 12.2 µM (inactive) | 25.4 µM (inactive) | 14.9 µM (inactive) | 18.3 µM (inactive) | 17.4 µM (inactive) | 10.1 µM (inactive) | 13.1 µM (inactive) | 16.6 µM (inactive) | 13.9 µM (inactive) | 20.1 µM (inactive) | 14.7 µM (inactive) | 12.6 µM (inactive) | – | –
COc1ccc(/C=C2\CC3C4CC=C5C[C@@H](O)CC[C@]5(C)C4CC[C@]3(C)\C2=N\O)cc1OC (stereo partly drawn) | 18.2 µM (inactive) | 5.13 µM (inactive) | 4.98 µM (inactive) | 7.5 µM (inactive) | 19.6 µM (inactive) | 5.37 µM (inactive) | 2.69 µM (inactive) | 5.02 µM (inactive) | 16 µM (inactive) | 8.97 µM (inactive) | 7.73 µM (inactive) | 18.1 µM (inactive) | 7.26 µM (inactive) | 7.57 µM (inactive) | 4.1 µM (inactive) | 15.7 µM (inactive) | 9.2 µM (inactive) | 10.3 µM (inactive) | 5.2 µM (inactive) | 5.14 µM (inactive)
CC(C)=C1C2CC3(C)CCC2(C)CCC13.CC1=CCC2C3(C)CCC2(C(C)C)C1C3 (stereo not drawn) | 24.5 µM (inactive) | 26.7 µM (inactive) | 31.4 µM (inactive) | 19.5 µM (inactive) | 20.1 µM (inactive) | 31.9 µM (inactive) | 16.5 µM (inactive) | 26.1 µM (inactive) | 18.9 µM (inactive) | 17.3 µM (inactive) | 17.8 µM (inactive) | 19.3 µM (inactive) | 27.4 µM (inactive) | 17.5 µM (inactive) | 10 µM (inactive) | 18.2 µM (inactive) | 23.4 µM (inactive) | 64.1 µM (inactive) | 19.7 µM (inactive) | 31.6 µM (inactive)
COC(=O)C1(Cc2ccccc2)Cc2cc3c(cc2C1)CCC3 | 14.9 µM (inactive) | 16.7 µM (inactive) | 17 µM (inactive) | 22.3 µM (inactive) | 30.6 µM (inactive) | 15.5 µM (inactive) | 33.7 µM (inactive) | 30.7 µM (inactive) | 27.7 µM (inactive) | 25.3 µM (inactive) | 20.1 µM (inactive) | 41.4 µM (inactive) | 41.3 µM (inactive) | 18.5 µM (inactive) | 17.2 µM (inactive) | 42.3 µM (inactive) | 22.4 µM (inactive) | 29.8 µM (inactive) | 29.6 µM (inactive) | 22 µM (inactive)
CC(=O)/N=C1/N(/C=C2\C(=O)Oc3ccccc3C2=O)C(=O)/C(=C/c2ccc(OC(C)=O)cc2)N1C | > 100 µM (inactive) | > 100 µM (inactive) | > 100 µM (inactive) | > 100 µM (inactive) | > 100 µM (inactive) | > 100 µM (inactive) | 83.4 µM (inactive) | > 100 µM (inactive) | > 100 µM (inactive) | > 100 µM (inactive) | > 100 µM (inactive) | > 100 µM (inactive) | > 100 µM (inactive) | > 100 µM (inactive) | > 100 µM (inactive) | > 100 µM (inactive) | > 100 µM (inactive) | > 100 µM (inactive) | > 100 µM (inactive) | > 100 µM (inactive)
C/C(=N\O)C1CC(CC(=O)O)C1(C)C (stereo not drawn) | > 100 µM (inactive) | > 100 µM (inactive) | > 100 µM (inactive) | > 100 µM (inactive) | > 100 µM (inactive) | > 100 µM (inactive) | 10.2 µM (inactive) | > 100 µM (inactive) | > 100 µM (inactive) | > 100 µM (inactive) | > 100 µM (inactive) | > 100 µM (inactive) | > 100 µM (inactive) | > 100 µM (inactive) | > 100 µM (inactive) | > 100 µM (inactive) | > 100 µM (inactive) | > 100 µM (inactive) | > 100 µM (inactive) | > 100 µM (inactive)
COc1cccc(NC(=O)CC(=O)n2nc(-c3ccccc3)c(/N=N/c3ccc(Cl)cc3)c2-c2ccccc2)c1 | 6.92 µM (inactive) | 23 µM (inactive) | 12.4 µM (inactive) | 31.7 µM (inactive) | 15.2 µM (inactive) | 9.84 µM (inactive) | 22.1 µM (inactive) | 36.4 µM (inactive) | 64.9 µM (inactive) | 15.8 µM (inactive) | 23 µM (inactive) | 11.6 µM (inactive) | 26.6 µM (inactive) | 21.5 µM (inactive) | 16.8 µM (inactive) | 18.6 µM (inactive) | 7.87 µM (inactive) | 14.2 µM (inactive) | 26.1 µM (inactive) | 19.4 µM (inactive)
CN(C)C(=O)C1CCC(=C2C(=O)OC(C)(C)OC2=O)N1C (stereo not drawn) | > 100 µM (inactive) | > 100 µM (inactive) | > 100 µM (inactive) | > 100 µM (inactive) | > 100 µM (inactive) | > 100 µM (inactive) | > 100 µM (inactive) | > 100 µM (inactive) | > 100 µM (inactive) | > 100 µM (inactive) | > 100 µM (inactive) | > 100 µM (inactive) | > 100 µM (inactive) | > 100 µM (inactive) | > 100 µM (inactive) | > 100 µM (inactive) | > 100 µM (inactive) | > 100 µM (inactive) | > 100 µM (inactive) | > 100 µM (inactive)
COC(=O)[C@@H](NC(=O)[C@H](N)Cc1ccc(N(CCCl)CCCl)cc1)C(C)C | 0.435 µM (active) | 16.9 µM (inactive) | 12.9 µM (inactive) | 25.1 µM (inactive) | 8.17 µM (inactive) | 0.0204 µM (active) | 6.38 µM (inactive) | 13.1 µM (inactive) | 36.5 µM (inactive) | 7.06 µM (inactive) | 12 µM (inactive) | 10.6 µM (inactive) | 7.91 µM (inactive) | 28.9 µM (inactive) | 1.78 µM (inactive) | 13.9 µM (inactive) | 19.4 µM (inactive) | 2.39 µM (inactive) | 18.2 µM (inactive) | 15 µM (inactive)
Cc1c2cccc-2ccc2c3ccccc3n(C(=O)c3ccc(Cl)cc3)c12 | > 57 µM (inactive) | 46.7 µM (inactive) | > 100 µM (inactive) | 26.7 µM (inactive) | > 100 µM (inactive) | > 85.5 µM (inactive) | > 100 µM (inactive) | > 100 µM (inactive) | > 100 µM (inactive) | > 100 µM (inactive) | > 100 µM (inactive) | > 100 µM (inactive) | > 100 µM (inactive) | > 100 µM (inactive) | > 100 µM (inactive) | > 100 µM (inactive) | > 100 µM (inactive) | > 100 µM (inactive) | > 100 µM (inactive) | 96.8 µM (inactive)
C[Si](C)(C)OC1(C#N)c2ccccc2CCCC12CCCC2 (stereo not drawn) | 19.6 µM (inactive) | 37.1 µM (inactive) | 34.7 µM (inactive) | 42.8 µM (inactive) | 48.3 µM (inactive) | 23.1 µM (inactive) | 46 µM (inactive) | 80 µM (inactive) | > 100 µM (inactive) | 50.9 µM (inactive) | 26.5 µM (inactive) | 57.4 µM (inactive) | 53.5 µM (inactive) | 18.5 µM (inactive) | 24.1 µM (inactive) | 59.4 µM (inactive) | 29.4 µM (inactive) | 80.2 µM (inactive) | 34.9 µM (inactive) | 26.6 µM (inactive)
